Laboratory results taken from patent US4927820A, “Fused heterocyclic derivatives of 1,2,3,4-tetrahydroacridine” (priority 1988, dated 1990).

Experiments:
[1] = system: scopolamine induced memory deficit in mice; test: Dark Avoidance Assay (reversal of scopolamine induced memory deficit); format: in vivo; conditions: retest 24 hours later
Experimental: This utility can also be ascertained by determining the ability of these compounds to restore cholinergically deficient memory in the Dark Avoidance Assay. In this assay mice are tested for their ability to remember an unpleasant stimulus for a period of 24 hours. A mouse is placed in a chamber that contains a dark compartment; a strong incadescent light drives it to the dark compartment, where an electric shock is administered through metal plates on the floor. The animal is removed from the testing apparatus and tested again, 24 hours later, for the ability to remember the electric shock.
If scopolamine, an anticholinergic that is known to cause memory impairment, is administered before an animal's initial exposure to the test chamber, the animal re-enters the dark compartment shortly after being placed in the test chamber 24 hours later. This effect of scopolamine is blocked by an active test compound, resulting in a greater interval before re-entry into the dark compartment.
The results for an active compound are expressed as the percent of a group of animals in which the effect of scopolamine is blocked, as manifested by an increased interval between being placed in the test chamber and re-entering the dark compartment.

acetylcholinesterase = acetylcholinesterase (Homo sapiens, UniProt P22303); test: Cholinesterase inhibition assay (photometric method of Ellman et al.); format: biochemical
acetylcholinesterase, sequence (P22303 32-614): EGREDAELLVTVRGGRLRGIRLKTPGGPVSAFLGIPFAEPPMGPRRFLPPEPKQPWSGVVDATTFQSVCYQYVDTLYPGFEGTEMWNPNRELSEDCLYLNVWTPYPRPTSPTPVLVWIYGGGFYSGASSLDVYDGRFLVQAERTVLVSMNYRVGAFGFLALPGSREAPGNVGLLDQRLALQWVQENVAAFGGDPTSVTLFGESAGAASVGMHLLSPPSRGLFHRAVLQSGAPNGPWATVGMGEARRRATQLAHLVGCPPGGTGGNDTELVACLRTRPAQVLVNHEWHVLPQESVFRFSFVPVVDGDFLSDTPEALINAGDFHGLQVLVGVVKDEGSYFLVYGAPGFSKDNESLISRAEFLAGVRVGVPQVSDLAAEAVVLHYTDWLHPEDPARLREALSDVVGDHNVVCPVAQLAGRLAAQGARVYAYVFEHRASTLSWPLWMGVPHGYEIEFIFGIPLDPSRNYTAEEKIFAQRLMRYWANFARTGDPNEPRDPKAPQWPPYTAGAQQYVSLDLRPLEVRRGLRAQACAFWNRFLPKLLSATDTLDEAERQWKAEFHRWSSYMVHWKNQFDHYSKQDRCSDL

Compound	% of animals with scopolamine induced memory deficit reversal ([1]; dose 5.0 mg/kg body weight) [%]	IC50 (acetylcholinesterase) [µM]	% of animals with scopolamine induced memory deficit reversal ([1]; dose 0.31 mg/kg body weight, reference) [%]
c1ccc(C2Nc3c4c(nc5ccccc35)CCCC4O2)cc1 (stereo not shown) [2-Phenyl-1,2,3a,4,5,6-hexahydro[1,3]oxazino[6,5,4-kl]acridine]	27	36	
CNC(=O)Oc1ccc2c(c1)[C@]1(C)CCN(C)[C@@H]1N2C [Physostigmine, reference compound]			20
Fc1ccc(C2Nc3c4c(nc5ccccc35)CCCC4O2)cc1 (stereo not shown) [2-(4-Fluorophenyl)-1,2,3a,4,5,6-hexahydro[1,3]oxazino[6,5,4-kl]acridine]		21	
